Counter-ions that a name gives are not always drawn.
test system: A/PuertoRico/8/1934 (H1N1) virus; experiment: microbe, parasite or virus in culture; format: cell-based, influenza A virus; conditions: 20 µM

Compound | NA Inhibition (%)
CNCC(=O)c1ccc(O)c(O)c1.Cl [Adrenalone HCl] | 6.4%
CCC1=C[C@@H]2CN3CCc4c([nH]c5ccccc45)[C@@](C(=O)OC)(C2)[C@@H]13 [Catharanthine] | 42.3%
L-Adrenaline | -38.4
CC(C)c1cc(-c2ccc(F)c3ccccc23)nc(N)n1 [RS-127445] | 20.3%
CN(C)CCC(c1ccc(Br)cc1)c1ccccn1.O=C(O)/C=C\C(=O)O (stereo not drawn) [Brompheniramine hydrogen maleate] | 12.4%
CN1c2ccccc2C(NCCCCCCC(=O)[O-])c2ccc(Cl)cc2S1(=O)=O.[Na+] (stereo not drawn) [Tianeptine sodium] | 4.5%
OC(CN1CCN(c2cccc(Cl)c2)CC1)C(c1ccccc1)c1ccccc1 (stereo not drawn) [BRL-15572] | 24.4%
CN1CCC(c2c[nH]c3ccc(O)cc23)CC1 [BRL-54443] | 23.6%
Br.Br.NCCCCCNCC12CC3CC(CC(C3)C1)C2 [IEM 1754 dihydrobroMide] | 23.2%
Cc1cccc(C#Cc2ccccc2)n1 [MPEP] | 32.6%
O=C(Nc1cccc(Cl)c1)c1ccccn1 [VU 0364770] | 28.5%
O=C(O)CCCN1CCC(O[C@@H](c2ccc(Cl)cc2)c2ccccn2)CC1.O=S(=O)(O)c1ccccc1 [Bepotastine Besilate] | 21.1%
CN1CCN(c2nc3ccccc3nc2Cl)CC1 [VUF 10166] | 7.6%
CCCCOc1ccc(C(=O)Nc2ccc(F)cc2F)cc1 [VU 0357121] | 29.7%
COc1ccccc1N1CCN(CCN(C(=O)C2CCCCC2)c2ccccn2)CC1.O=C(O)/C=C\C(=O)O [WAY-100635 Maleate] | 9.1%
COc1ccc(NS(=O)(=O)c2sc3ccc(Cl)cc3c2C)cc1N1CCNCC1.Cl [SB271046 HCl] | 18.8%
CN1[C@@H]2CC(O)C[C@H]1[C@@H]1O[C@@H]12 (stereo partly drawn) [Scopine] | -19.4%
O=C(c1ccc(F)cc1)N1CCC[C@H](c2nc(-c3ccc(F)cc3)no2)C1 [ADX-47273] | 34.4%
Cc1cncc(CN2CCC(=C3c4ccc(Cl)cc4CCc4cccnc43)CC2)c1.O=C(O)/C=C/C(=O)O [Rupatadine Fumarate] | 22.5%
CC(C)N(CCC(c1ccccc1)c1cc(CO)ccc1O)C(C)C (stereo not drawn) [5-hydroxymethyl Tolterodine] | 6.5%
Cl.Cl.NCCc1c[nH]cn1 [Histamine 2HCl] | 2.5
Cc1nc(C#Cc2ccnc(Cl)c2)c(C)n1-c1ccc(OC(F)(F)F)cc1 [CTEP (RO4956371)] | 31.0%
CCc1ccc(OCc2ccccc2C(=O)Nc2ccc3nc(C)cc(N)c3c2)cc1 [JTC-801] | 41.4%
(-)-MK 801 Maleate | 26.1%
CNCCc1ccccn1.Cl.Cl [Betahistine 2HCl] | 4.8%
COc1cc(OC)c(NC(=O)Nc2cc(C)on2)cc1Cl [PNU-120596] | -38.3%
Cc1cccc([C@H](C)c2cnc[nH]2)c1C [Dexmedetomidine] | 21.4

same assay, conditions: Influenza A virus, H1N1, U-937, 48 h, read-out: NA Inhibition (%)

Compound | inhibition at 20 µM
COc1cc2c(cc1OC)C(=O)C(CC1CCN(Cc3ccccc3)CC1)C2 (stereo not drawn) [Donepezil HCl] | 4.5%
Cc1cc(C(C)(C)C)c(O)c(C)c1CC1=NCCN1 [Oxymetazoline hydrochloride] | -21%
CC(C)(C)NC[C@H](O)COc1nsnc1N1CCOCC1 [Timolol Maleate] | 33.2%
COCCc1ccc(OCC(O)CNC(C)C)cc1 (stereo not drawn) [Metoprolol Tartrate] | -24.2%
CN1[C@@H]2C[C@@H](OC(=O)[C@H](CO)c3ccccc3)C[C@H]1[C@@H]1O[C@@H]12 [Scopolamine HBr] | -0.4%
Cc1ccc(O)c([C@H](CCN(C(C)C)C(C)C)c2ccccc2)c1 [Tolterodine tartrate] | -12%
O=c1n(CCCN2CCN(c3cccc(Cl)c3)CC2)nc2ccccn12 [Trazodone HCl] | -9.8%
CNC[C@H](O)c1ccc(O)c(O)c1 [Epinephrine HCl] | 7.1%
CC(=O)SCC(Cc1ccccc1)C(=O)NCC(=O)OCc1ccccc1 (stereo not drawn) [Racecadotril] | -29.5%
CNCCCC12CCC(c3ccccc31)c1ccccc12 [Maprotiline HCl] | -23.2%
CNC[C@H](O)c1cccc(O)c1 [Phenylephrine HCl] | 4.9%
COc1cc(NC(=O)c2ccccn2)ccc1Cl [VU 0361737] | 23.5%
C=CCN1CC[C@]23c4c5ccc(O)c4O[C@H]2C(=O)CC[C@@]3(O)[C@H]1C5 [Naloxone HCl] | 25.4%
CN1CCN(C(=O)c2cc3cc(Cl)ccc3[nH]2)CC1 [JNJ-7777120] | 19.7%
CC(C)(C(=O)O)c1ccc(C(O)CCCN2CCC(C(O)(c3ccccc3)c3ccccc3)CC2)cc1 (stereo not drawn) [Fexofenadine HCl] | -9.9%
CN(C)CCCN1c2ccccc2CCc2ccc(Cl)cc21 [Clomipramine HCl] | -11.3%
C[C@]12N[C@H](Cc3ccccc31)c1ccccc12 [MK-801 (Dizocilpine), Dizocilpine] | 20.9%
COCCCN1CCC(NC(=O)c2cc(Cl)c(N)c3c2OCC3)CC1 [Prucalopride] | 20.7%

same assay, conditions: Influenza A virus, H1N1, U-937, 48 h; read-out: NA Inhibition (%)

Compound | inhibition at 20 µM
CCCC(CCC)C(=O)O [Valproic acid sodium salt] | -18.5%
O=C(O[C@H]1C[N+]2(CCCOc3ccccc3)CCC1CC2)C(O)(c1cccs1)c1cccs1 [Aclidinium Bromide] | 13.8%
CN(C)CCC(c1ccc(Cl)cc1)c1ccccn1 (stereo not drawn) [Chlorpheniramine Maleate] | 1%
CN(C)CC/C=C1/c2ccccc2COc2ccc(CC(=O)O)cc21 [Olopatadine HCl] | -11.6%
CN(C)C(=O)Oc1ccc[n+](C)c1 [Pyridostigmine Bromide] | -34.1%
C[C@@H]1C(=O)O[C@H]2C[C@@]34[C@H]5C[C@@H](C(C)(C)C)[C@]36[C@@H](OC(=O)[C@@H]6O)O[C@@]4(C(=O)O5)[C@]21O [Ginkgolide A] | 23.3%
CN(C)CCCN1c2ccccc2Sc2ccc(Cl)cc21 [Chlorpromazine HCl] | 53.3%
CCN1CCCC1CNC(=O)c1cc(S(=O)(=O)CC)c(N)cc1OC (stereo not drawn) [Amisulpride] | 6.2%
Cc1c(-c2ccccc2)oc2c(C(=O)OCCN3CCCCC3)cccc2c1=O [Flavoxate HCl] | 8.2%
CCc1cc2c(cc1CC)CC(NC[C@H](O)c1ccc(O)c3[nH]c(=O)ccc13)C2 [Indacaterol Maleate] | -6%
Cc1cccn2c(=O)c(-c3nnn[nH]3)cnc12 [Pemirolast potassium] | -23.7%
O=c1ccc2ccc(OCCCCN3CCN(c4cccc5sccc45)CC3)cc2[nH]1 [Brexpiprazole] | 54%
CN1CCC(=C2c3ccccc3CC(=O)c3sccc32)CC1 [Ketotifen Fumarate] | -4.7%
O=C1c2cccc3c2[C@H](CCC3)CN1[C@@H]1CN2CCC1CC2 [Palonosetron HCl] | -5.5%
O=C(O)c1cccnc1Nc1cccc(C(F)(F)F)c1 [Niflumic acid] | 23.7%
CN1CCC(=C2c3ccccc3C=Cc3ccccc32)CC1 [Cyproheptadine HCl] | 4.6%
O=S(=O)(c1ccccc1)c1cnc2c(N3CCNCC3)cccc2c1 [SB742457] | 16.8%
CN1[C@@H]2CC[C@H]1C[C@@H](OC(=O)C(CO)c1ccccc1)C2 (stereo partly drawn) [Atropine] | -5.8%
CCN(CC)CC(=O)Nc1c(C)cccc1C [Lidocaine] | 5.1%
CC(NCCc1ccc(O)cc1)C(O)c1ccc(O)cc1 (stereo not drawn) [Ritodrine HCl] | -20.6%
CCCCCCCCOc1ccccc1C(=O)Nc1ccc(C(=O)OCC[N+](C)(CC)CC)cc1 [Otilonium Bromide] | -2.3%
C[N+]1(C)[C@@H]2C[C@@H](OC(=O)C(O)(c3cccs3)c3cccs3)C[C@H]1[C@@H]1O[C@@H]12 [Tiotropium Bromide hydrate] | -34.7%
Cc1cccc(C)c1N=C1NCCCS1 [Xylazine HCl] | -20%
CN1CCC[C@@H]1Cc1c[nH]c2ccc(CCS(=O)(=O)c3ccccc3)cc12 [Eletriptan HBr] | 20.2%
c1ccc2c(CC3=NCCN3)cccc2c1 [Naphazoline HCl] | -18.7%
COc1ccccc1N1CCN(CCN2C(=O)CC3(CCCC3)CC2=O)CC1 [BMY 7378] | 23.8%
CC(COc1ccccc1)N(CCCl)Cc1ccccc1 (stereo not drawn) [Phenoxybenzamine HCl] | 95.4%
COC(=O)C1=CCCN(C)C1 [Arecoline] | -10.6%
CC[N+](CC)(CC)CCOc1cccc(OCC[N+](CC)(CC)CC)c1OCC[N+](CC)(CC)CC [Gallamine Triethiodide] | -9%
C[N+]1(C)[C@@H]2CC[C@H]1C[C@@H](OC(=O)C(O)c1ccccc1)C2 (stereo partly drawn) [Homatropine Methylbromide] | -12%

test system: not listed separately; experiment: in vitro; conditions: human, Relative Viability (%)

Compound | viability at 20 µM
CCCC(CCC)C(=O)O [Valproic acid sodium salt] | 113%
O=C(O[C@H]1C[N+]2(CCCOc3ccccc3)CCC1CC2)C(O)(c1cccs1)c1cccs1 [Aclidinium Bromide] | 194%
CN[C@H]1CC[C@@H](c2ccc(Cl)c(Cl)c2)c2ccccc21 [Sertraline HCl] | 124%
CN(C)CCC(c1ccc(Cl)cc1)c1ccccn1 (stereo not drawn) [Chlorpheniramine Maleate] | 102%
CN(C)CC/C=C1/c2ccccc2COc2ccc(CC(=O)O)cc21 [Olopatadine HCl] | 122%
Cc1cc(C(C)(C)C)c(O)c(C)c1CC1=NCCN1 [Oxymetazoline hydrochloride] | 113%
CN(C)C(=O)Oc1ccc[n+](C)c1 [Pyridostigmine Bromide] | 88.2%
C[C@@H]1C(=O)O[C@H]2C[C@@]34[C@H]5C[C@@H](C(C)(C)C)[C@]36[C@@H](OC(=O)[C@@H]6O)O[C@@]4(C(=O)O5)[C@]21O [Ginkgolide A] | 109%
CN(C)CCCN1c2ccccc2Sc2ccc(Cl)cc21 [Chlorpromazine HCl] | 115%
CCN1CCCC1CNC(=O)c1cc(S(=O)(=O)CC)c(N)cc1OC (stereo not drawn) [Amisulpride] | 89.7%
CN1CC2c3ccccc3Oc3ccc(Cl)cc3C2C1 (stereo not drawn) [Asenapine] | 87.1%
CC(C)(C)NC[C@H](O)COc1nsnc1N1CCOCC1 [Timolol Maleate] | 91.2%
Cc1c(-c2ccccc2)oc2c(C(=O)OCCN3CCCCC3)cccc2c1=O [Flavoxate HCl] | 118%
COCCc1ccc(OCC(O)CNC(C)C)cc1 (stereo not drawn) [Metoprolol Tartrate] | 106%
Cc1cccn2c(=O)c(-c3nnn[nH]3)cnc12 [Pemirolast potassium] | 108%
O=c1ccc2ccc(OCCCCN3CCN(c4cccc5sccc45)CC3)cc2[nH]1 [Brexpiprazole] | 97.2%
CN1CCC(=C2c3ccccc3CC(=O)c3sccc32)CC1 [Ketotifen Fumarate] | 108%
O=C1c2cccc3c2[C@H](CCC3)CN1[C@@H]1CN2CCC1CC2 [Palonosetron HCl] | 102%
Cc1ccccc1C(OCCN(C)C)c1ccccc1 (stereo not drawn) [Orphenadrine Citrate] | 106%
CC(C)(C)c1ccc(C(=O)CCCN2CCC(OC(c3ccccc3)c3ccccc3)CC2)cc1 [Ebastine] | 105%
CN1CCC[C@@H]1CCO[C@](C)(c1ccccc1)c1ccc(Cl)cc1 [Clemastine Fumarate] | 88.5%
